Experimental data from patent publication US20250302815A1, “PROTEIN TYROSINE PHOSPHATASE TARGETING LIGANDS” (CALICO LIFE SCIENCES LLC, priority 2021, published 2025).

How the values were obtained:
[1] = molecular target: T1, PTPN2 (B16F10.4 cells) (Mus musculus, UniProt Q06180); test: HiBiT Degradation B16F10.4 PTPN2; type: cell-based; conditions: 24.0 hours
T1 construct: HiBiT; host or cells: B16F10.4
T1 sequence (Q06180 1-406): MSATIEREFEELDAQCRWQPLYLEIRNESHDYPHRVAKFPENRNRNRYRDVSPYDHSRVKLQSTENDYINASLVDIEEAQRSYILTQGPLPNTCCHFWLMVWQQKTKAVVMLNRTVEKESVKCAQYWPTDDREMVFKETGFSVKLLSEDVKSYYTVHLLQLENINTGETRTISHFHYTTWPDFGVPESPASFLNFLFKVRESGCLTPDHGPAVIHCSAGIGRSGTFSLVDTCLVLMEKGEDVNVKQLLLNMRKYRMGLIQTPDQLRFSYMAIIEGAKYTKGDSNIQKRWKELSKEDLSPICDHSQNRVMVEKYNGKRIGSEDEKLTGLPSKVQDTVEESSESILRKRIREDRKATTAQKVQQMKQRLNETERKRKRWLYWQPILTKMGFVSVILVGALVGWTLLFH

[2] = molecular target: T2, PTPN2 (HiBIT-PTPN2 in 293T.109 cells) (Homo sapiens, UniProt P17706); test: HiBiT Degradation 293T.109 PTPN2 (Nano-Glo HiBiT Lytic Assay); type: cell-based; conditions: 24.0 hours
T2 construct: expressed in transfected cells; host or cells: 293T.109 (293T WT from ATCC)
T2 sequence (P17706 1-415): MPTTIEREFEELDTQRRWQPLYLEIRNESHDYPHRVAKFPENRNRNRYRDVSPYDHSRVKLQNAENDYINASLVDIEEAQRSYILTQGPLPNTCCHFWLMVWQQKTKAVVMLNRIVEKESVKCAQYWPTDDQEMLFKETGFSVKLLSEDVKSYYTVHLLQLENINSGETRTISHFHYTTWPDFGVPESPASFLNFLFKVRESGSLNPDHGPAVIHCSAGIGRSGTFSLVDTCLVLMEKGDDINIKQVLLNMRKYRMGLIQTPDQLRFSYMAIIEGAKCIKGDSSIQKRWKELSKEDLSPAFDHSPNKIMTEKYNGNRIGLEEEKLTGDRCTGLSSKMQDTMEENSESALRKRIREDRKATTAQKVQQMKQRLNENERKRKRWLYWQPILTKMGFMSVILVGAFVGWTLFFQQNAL
How it was run: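 293T.109 cells with ectopic N-terminal HiBiT-tagged PTPN2 (5000/well) exposed to compounds for 24 h at 37 °C, 5% CO2; 11-point half-log titration from 10 μM top, duplicates. Remaining HiBiT-PTPN2 read as luminescence with Nano-Glo HiBiT lytic reagent, normalised to untreated cells (0%) and reagent-free wells.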

Cn1nc(C2CCC(=O)NC2=O)c2ccc(C3CCN(C(=O)Nc4cccc(CS(=O)(=O)N5CC[C@@H](Nc6cccc(-c7sc(C(=O)O)c(OCC(=O)O)c7Cl)c6)CC5(C)C)c4)CC3(F)F)cc21 (stereo partly drawn) [Example 185, 3-(carboxymethoxy)-4-chloro-5-(3-(((4R)-1-((3-(4-(3-(2,6-dioxopiperidin-3-yl)-1-methyl-1H-indazol-6-yl)-3,3-difluoropiperidine-1-carboxamido)benzyl)sulfonyl)-2,2-dimethylpiperidin-4-yl)amino)phenyl)thiophene-2-carboxylic acid]
DC50 [1]: < 50 nM | DC50 [2]: 200 to 1000 nM

CC1(C)C[C@@H](Nc2cccc(-c3sc(C(=O)O)c(OCC(=O)O)c3Cl)c2)CCN1S(=O)(=O)Cc1cccc(NC(=O)N2CCC(c3ccc4c(c3)n(C(C)(C)C)c(=O)n4C3CCC(=O)NC3=O)CC2)c1 (stereo partly drawn) [Example 186, 5-(3-(((4S)-1-((3-(4-(3-(tert-butyl)-1-(2,6-dioxopiperidin-3-yl)-2-oxo-2,3-dihydro-1H-benzo[d]imidazol-5-yl)piperidine-1-carboxamido)benzyl)sulfonyl)-2,2-dimethylpiperidin-4-yl)amino)phenyl)-3-(carboxymethoxy)-4-chlorothiophene-2-carboxylic acid]
DC50 [1]: 50 to 200 nM | DC50 [2]: 50 to 200 nM

CC1(C)C[C@@H](Nc2cccc(-c3sc(C(=O)O)c(OCC(=O)O)c3Cl)c2)CCN1S(=O)(=O)Cc1cccc(N2CCN(C3CCN(c4ccc5c6c(cccc46)C(=O)N5C4CCC(=O)NC4=O)CC3)C2=O)c1 (stereo partly drawn) [Example 189, 3-(carboxymethoxy)-4-chloro-5-(3-(((4S)-1-((3-(3-(1-(1-(2,6-dioxopiperidin-3-yl)-2-oxo-1,2-dihydrobenzo[cd]indol-6-yl)piperidin-4-yl)-2-oxoimidazolidin-1-yl)benzyl)sulfonyl)-2,2-dimethylpiperidin-4-yl)amino)phenyl)thiophene-2-carboxylic acid]
DC50 [1]: < 50 nM | DC50 [2]: < 50 nM

Cn1c(=O)n(C2CCC(=O)NC2=O)c2ccc(C3CCN(C(=O)Nc4cccc(CS(=O)(=O)N5CC[C@H](Nc6cccc(-c7sc(C(=O)O)c(OCC(=O)O)c7Cl)c6)CC56CC6)c4)CC3)cc21 (stereo partly drawn) [Example 190, 3-(carboxymethoxy)-4-chloro-5-(3-(((7S)-4-((3-(4-(1-(2,6-dioxopiperidin-3-yl)-3-methyl-2-oxo-2,3-dihydro-1H-benzo[d]imidazol-5-yl)piperidine-1-carboxamido)benzyl)sulfonyl)-4-azaspiro[2.5]octan-7-yl)amino)phenyl)thiophene-2-carboxylic acid]
DC50 [1]: 50 to 200 nM | DC50 [2]: < 50 nM

Cn1c(=O)n(C2CCC(=O)NC2=O)c2ccc(Nc3cccc(CC(=O)Nc4cccc(CS(=O)(=O)N5CC[C@H](Nc6cccc(-c7sc(C(=O)O)c(OCC(=O)O)c7Cl)c6)CC5(C)C)c4)c3)cc21 (stereo partly drawn) [Example 191, 3-(carboxymethoxy)-4-chloro-5-(3-(((4S)-1-((3-(2-(3-((1-(2,6-dioxopiperidin-3-yl)-3-methyl-2-oxo-2,3-dihydro-1H-benzo[d]imidazol-5-yl)amino)phenyl)acetamido)benzyl)sulfonyl)-2,2-dimethylpiperidin-4-yl)amino)phenyl)thiophene-2-carboxylic acid]
DC50 [1]: 50 to 200 nM | DC50 [2]: 50 to 200 nM

Cn1c(=O)n(C2CCC(=O)NC2=O)c2ccc(-c3cccc(CC(=O)Nc4cccc(CS(=O)(=O)N5CC[C@H](Nc6cccc(-c7sc(C(=O)O)c(OCC(=O)O)c7Cl)c6)CC5(C)C)c4)c3)cc21 (stereo partly drawn) [Example 192, 3-(carboxymethoxy)-4-chloro-5-(3-(((4S)-1-((3-(2-(3-(1-(2,6-dioxopiperidin-3-yl)-3-methyl-2-oxo-2,3-dihydro-1H-benzo[d]imidazol-5-yl)phenyl)acetamido)benzyl)sulfonyl)-2,2-dimethylpiperidin-4-yl)amino)phenyl)thiophene-2-carboxylic acid]
DC50 [1]: 50 to 200 nM | DC50 [2]: 50 to 200 nM

CC1(C)C[C@H](Nc2cccc(-c3sc(C(=O)O)c(OCC(=O)O)c3Cl)c2)CCN1S(=O)(=O)Cc1cccc(NC(=O)N2CCC(c3ccc4c(C5CCC(=O)NC5=O)cnn4c3)CC2)c1 (stereo partly drawn) [Example 193, 3-(carboxymethoxy)-4-chloro-5-(3-(((4R)-1-((3-(4-(3-(2,6-dioxopiperidin-3-yl)pyrazolo[1,5-a]pyridin-6-yl)piperidine-1-carboxamido)benzyl)sulfonyl)-2,2-dimethylpiperidin-4-yl)amino)phenyl)thiophene-2-carboxylic acid]
DC50 [1]: 200 to 1000 nM | DC50 [2]: 200 to 1000 nM

Cn1c(=O)n(C2CCC(=O)NC2=O)c2ccc(-c3cnn(CC(=O)Nc4cccc(CS(=O)(=O)N5CC[C@H](Nc6cccc(-c7sc(C(=O)O)c(OCC(=O)O)c7Cl)c6)CC5(C)C)c4)c3)cc21 (stereo partly drawn) [Example 194, 3-(carboxymethoxy)-4-chloro-5-[3-[[(4S)-1-[[3-[[2-[4-[1-(2,6-dioxo-3-piperidyl)-3-methyl-2-oxo-benzimidazol-5-yl]pyrazol-1-yl]acetyl]amino]phenyl]methylsulfonyl]-2,2-dimethyl-4-piperidyl]amino]phenyl]thiophene-2-carboxylic acid]
DC50 [1]: 50 to 200 nM | DC50 [2]: 200 to 1000 nM

CC1(C)C[C@@H](Nc2cccc(-c3sc(C(=O)O)c(OCC(=O)O)c3Cl)c2)CCN1S(=O)(=O)Cc1cccc(NC(=O)N2CCC(c3ccc4c(c3)c3cccnc3n4C3CCC(=O)NC3=O)CC2)c1 (stereo partly drawn) [Example 195, 3-(carboxymethoxy)-4-chloro-5-[3-[[(4S)-1-[[3-[[4-[9-(2,6-dioxo-3-piperidyl)pyrido[2,3-b]indol-6-yl]piperidine-1-carbonyl]amino]phenyl]methylsulfonyl]-2,2-dimethyl-4-piperidyl]amino]phenyl]thiophene-2-carboxylic acid]
DC50 [1]: 200 to 1000 nM | DC50 [2]: 200 to 1000 nM

CC1(C)C[C@@H](Nc2cccc(-c3sc(C(=O)O)c(OCC(=O)O)c3Cl)c2)CCN1S(=O)(=O)Cc1cccc(NC(=O)N2CCC(c3ccc4c(ccn4C4CCC(=O)NC4=O)c3)CC2)c1 (stereo partly drawn) [Example 196, 3-(carboxymethoxy)-4-chloro-5-(3-(((4S)-1-((3-(4-(1-(2,6-dioxopiperidin-3-yl)-1H-indol-5-yl)piperidine-1-carboxamido)benzyl)sulfonyl)-2,2-dimethylpiperidin-4-yl)amino)phenyl)thiophene-2-carboxylic acid]
DC50 [1]: 200 to 1000 nM | DC50 [2]: 200 to 1000 nM

Cn1c(=O)n(C2CCC(=O)NC2=O)c2ccc(N3CCC(NCCNc4cccc(CS(=O)(=O)N5CC[C@H](Nc6cccc(-c7sc(C(=O)O)c(OCC(=O)O)c7Cl)c6)CC5(C)C)c4)CC3)cc21 (stereo partly drawn) [Example 197, 3-(carboxymethoxy)-4-chloro-5-[3-[[(4S)-1-[[3-[2-[[1-[1-(2,6-dioxo-3-piperidyl)-3-methyl-2-oxo-benzimidazol-5-yl]-4-piperidyl]amino]ethylamino]phenyl]methylsulfonyl]-2,2-dimethyl-4-piperidyl]amino]phenyl]thiophene-2-carboxylic acid]
DC50 [1]: 50 to 200 nM | DC50 [2]: < 50 nM

Cn1c(=O)n(C2CCC(=O)NC2=O)c2ccc(N3CCC(N4CCN(c5cccc(CS(=O)(=O)N6CC[C@H](Nc7cccc(-c8sc(C(=O)O)c(OCC(=O)O)c8Cl)c7)CC6(C)C)c5)C4=O)CC3)cc21 (stereo partly drawn) [Example 198, 3-(carboxymethoxy)-4-chloro-5-[3-[[(4S)-1-[3-[3-[[1-[1-(2,6-dioxo-3-piperidyl)-3-methyl-2-oxo-benzimidazol-5-yl]-4-piperidyl]-2-oxo-imidazolidin-1-yl]phenyl]methylsulfonyl]-2,2-dimethyl-4-piperidyl]amino]phenyl]thiophene-2-carboxylic acid]
DC50 [1]: 50 to 200 nM | DC50 [2]: 50 to 200 nM
